Data on 6 compounds can be found in patent US20240287045A1, “CRYSTAL FORM OF PYRIMIDINE DERIVATIVE AND PREPARATION METHOD THEREFOR” (ZHEJIANG HISUN PHARMACEUTICAL CO., LTD., priority 2021, published 2024).

What all share (type): physicochemical
The nature of data set [1]: Stability experiment: purity after 10 days of humidity, heat or light. The note with it: for stability compared with the amorphous form: conclusion from Table 6. As to the method: High-performance liquid chromatography (HPLC) test conditions involved in the present disclosure: the model of the liquid chromatograph was Agilent 1260; the chromatographic column was Waters XBridge C18 150*4.6 mm 3.5 μm; the detection wavelength was 234 nm; and the column temperature was 25° C.
The amorphous form of the compound of formula I prepared in Preparation Example, the crystal form A of the compound of formula I prepared in Example 1, the crystal form B of the compound of formula I prepared in Example 32, the crystal form C of the compound of formula I prepared in Example 48, the crystal form D of the compound of formula I prepared in Example 51, and the crystal form E of the compound of formula I prepared in Example 54 were placed in 75% RH, 92.5% RH, 40° C., 60° C. and light for 10 days respectively, and the X-ray powder diffraction pattern and purity of each crystal form were measured.

Data set [2] can be described thus: Granularity experiment (D50, D90). The note with it: for D50 / D90: granularity. As to the method: The amorphous form of the compound of formula I prepared in Preparation Example, the crystal form A of the compound of formula I prepared in Example 1, the crystal form B of the compound of formula I prepared in Example 32, the crystal form C of the compound of formula I prepared in Example 48, the crystal form D of the compound of formula I prepared in Example 51, and the crystal form E of the compound of formula I prepared in Example 54 were measured for granularity, and the specific results are shown in Table 7 below: […]

Data set [3] in a line: Fluidity test (angle of repose). To be noted: for fluidity / angle of repose (in words): crystal forms compared with amorphous form. As to the method:
The amorphous form of the compound of formula I prepared in Preparation Example, the crystal form A of the compound of formula I prepared in Example 1, the crystal form B of the compound of formula I prepared in Example 32, the crystal form C of the compound of formula I prepared in Example 48, the crystal form D of the compound of formula I prepared in Example 51, and the crystal form E of the compound of formula I prepared in Example 54 were measured for angle of repose, and the specific results are shown in Table 8 below: […]

The next data set can be described thus: Hygroscopicity test. To be noted: for Hygroscopicity: 75% RH and 25° C. for 24 h, by weighing; for hygroscopicity (in words): crystal forms compared with amorphous form. As for the experimental part: The amorphous form of the compound of formula I prepared in Preparation Example, the crystal form A of the compound of formula I prepared in Example 1, the crystal form B of the compound of formula I prepared in Example 32, the crystal form C of the compound of formula I prepared in Example 48, the crystal form D of the compound of formula I prepared in Example 51, and the crystal form E of the compound of formula I prepared in Example 54 were placed in an environment of 75% RH and 25° C. for 24 h and then weighed to calculate the hygroscopicity, respectively.

Regarding `C=CC(=O)Nc1cc(N2CCN(CC)C3(CC3)C2)ccc1Nc1cc(N(C)C(=O)Nc2c(Cl)c(OC)cc(OC)c2Cl)ncn1` [Amorphous form, N-(2-((6-(3-(2,6-dichloro-3,5-dimethoxyphenyl)-1-methylureido)pyrimidin-4-yl)amino)-5-(4-ethyl-4,7-diazaspiro[2.5]octan-7-yl)phenyl)acrylamide], the purity is on record as 94.67 in data set [1] (40° C. for 10 days); 94.73 in data set [1] (60° C. for 10 days); 94.93 in data set [1] (75% RH for 10 days); 94.83 in data set [1] (92.5% RH for 10 days); 95.33 in data set [1] (Day 0); 94.97 in data set [1] (Light for 10 days). Also, the “D50 relative to the crystal forms” value in data set [2] (amorphous form D50 as share of crystal forms A-E) is ≤ 13%. In data set [2] (amorphous form D90 as share of crystal forms A-E), the “D90 relative to the crystal forms” value is listed as ≤ 33%. In addition, the “granularity (in words)” value in data set [2] (compared with crystal forms A-E) is “remarkably small granularity”. The D50 in data set [2] and in data set [2] (listed as amorphous form) was 2.68 μm throughout. In addition, the D90 in data set [2] and in data set [2] (listed as amorphous form) was 22.82 μm in each case. Besides, the “fluidity / angle of repose (in words)” value in data set [3] is reported as “significantly larger”. The angle of repose in data set [3] (measurement 1) stood at 43.3°; in data set [3] (measurement 2), 42.6°; in data set [3] (measurement 3) it was 41.9°. The Hygroscopicity in the data set “Hygroscopicity test” is listed as 0.52%. Also, the “hygroscopicity (in words)” value in the data set “Hygroscopicity test” was “significantly greater”.
As for `C=CC(=O)Nc1cc(N2CCN(CC)C3(CC3)C2)ccc1Nc1cc(N(C)C(=O)Nc2c(Cl)c(OC)cc(OC)c2Cl)ncn1` [Crystal form A, N-(2-((6-(3-(2,6-dichloro-3,5-dimethoxyphenyl)-1-methylureido)pyrimidin-4-yl)amino)-5-(4-ethyl-4,7-diazaspiro[2.5]octan-7-yl)phenyl)acrylamide], the purity in data set [1] (40° C. for 10 days) is recorded as 99.83; in data set [1] (60° C. for 10 days), 99.81; in data set [1] (75% RH for 10 days) it was 99.85; in data set [1] (92.5% RH for 10 days), 99.83; in data set [1] (Day 0) it was 99.87; in data set [1] (Light for 10 days), 99.87. Besides, the “stability compared with the amorphous form” value in data set [1] is “better stability”. Also, the D50 in data set [2] turned out to be 22.37 μm. Further, in data set [2], the D90 was 72.86 μm. In addition, the “fluidity / angle of repose (in words)” value in data set [3] is reported as “significantly better than the amorphous form in terms of fluidity”. The angle of repose in data set [3] (measurement 1) was 33.4°; in data set [3] (measurement 2), 31.8°; in data set [3] (measurement 3), 33.7°. For the same compound, in “Hygroscopicity test”, the Hygroscopicity worked out at 0.10%. In addition, in the data set “Hygroscopicity test”, the “hygroscopicity (in words)” value was “significantly better than the amorphous form in terms of hygroscopicity”.
Consider `C=CC(=O)Nc1cc(N2CCN(CC)C3(CC3)C2)ccc1Nc1cc(N(C)C(=O)Nc2c(Cl)c(OC)cc(OC)c2Cl)ncn1` [Crystal form B, N-(2-((6-(3-(2,6-dichloro-3,5-dimethoxyphenyl)-1-methylureido)pyrimidin-4-yl)amino)-5-(4-ethyl-4,7-diazaspiro[2.5]octan-7-yl)phenyl)acrylamide], for which the purity in data set [1] (40° C. for 10 days) came out at 99.69; in data set [1] (60° C. for 10 days) it was 99.72; in data set [1] (75% RH for 10 days) it was 99.75; in data set [1] (92.5% RH for 10 days), 99.73; in data set [1] (Day 0) it was 99.75; in data set [1] (Light for 10 days) it was 99.73. In data set [1], the “stability compared with the amorphous form” value is given as “better stability”. Also, the D50 in data set [2] is recorded as 21.98 μm. In data set [2], this compound gave a D90 of 71.56 μm. Moreover, the “fluidity / angle of repose (in words)” value in data set [3] was “significantly better than the amorphous form in terms of fluidity”. Further, the angle of repose in data set [3] (measurement 1) came out at 34.6°; in data set [3] (measurement 2), 35.7°; in data set [3] (measurement 3), 35.2°. In “Hygroscopicity test”, this compound had a Hygroscopicity of 0.12%. Moreover, the “hygroscopicity (in words)” value in the data set “Hygroscopicity test” is on record as “significantly better than the amorphous form in terms of hygroscopicity”.
For the compound `C=CC(=O)Nc1cc(N2CCN(CC)C3(CC3)C2)ccc1Nc1cc(N(C)C(=O)Nc2c(Cl)c(OC)cc(OC)c2Cl)ncn1` [Crystal form C, N-(2-((6-(3-(2,6-dichloro-3,5-dimethoxyphenyl)-1-methylureido)pyrimidin-4-yl)amino)-5-(4-ethyl-4,7-diazaspiro[2.5]octan-7-yl)phenyl)acrylamide], the purity in data set [1] (40° C. for 10 days) was found to be 99.66; in data set [1] (60° C. for 10 days) it was 99.66; in data set [1] (75% RH for 10 days), 99.71; in data set [1] (92.5% RH for 10 days), 99.68; in data set [1] (Day 0) it was 99.72; in data set [1] (Light for 10 days), 99.70. Moreover, the “stability compared with the amorphous form” value in data set [1] was “better stability”. Besides, in data set [2], the D50 was found to be 21.77 μm. The D90 in data set [2] is recorded as 70.88 μm. For the same compound, in data set [3], the “fluidity / angle of repose (in words)” value was “significantly better than the amorphous form in terms of fluidity”. The angle of repose in data set [3] (measurement 1) is given as 34.2°; in data set [3] (measurement 2) it was 35.4°; in data set [3] (measurement 3) it was 33.9°. The compound further yielded a Hygroscopicity in the data set “Hygroscopicity test” of 0.15%. Moreover, in the data set “Hygroscopicity test”, the “hygroscopicity (in words)” value is given as “significantly better than the amorphous form in terms of hygroscopicity”.
With `C=CC(=O)Nc1cc(N2CCN(CC)C3(CC3)C2)ccc1Nc1cc(N(C)C(=O)Nc2c(Cl)c(OC)cc(OC)c2Cl)ncn1` [Crystal form D, N-(2-((6-(3-(2,6-dichloro-3,5-dimethoxyphenyl)-1-methylureido)pyrimidin-4-yl)amino)-5-(4-ethyl-4,7-diazaspiro[2.5]octan-7-yl)phenyl)acrylamide], the purity in data set [1] (40° C. for 10 days) was 99.52; in data set [1] (60° C. for 10 days) it was 99.49; in data set [1] (75% RH for 10 days) it was 99.54; in data set [1] (92.5% RH for 10 days) it was 99.54; in data set [1] (Day 0), 99.55; in data set [1] (Light for 10 days), 99.53. Moreover, in data set [1], the “stability compared with the amorphous form” value is listed as “better stability”. For the same compound, the D50 in data set [2] stood at 20.98 μm. The same compound displayed a D90 in data set [2] of 70.49 μm. The “fluidity / angle of repose (in words)” value in data set [3] is reported as “significantly better than the amorphous form in terms of fluidity”. In addition, the figures for the angle of repose in data set [3] (measurement 1), in data set [3] (measurement 2) and in data set [3] (measurement 3) were 35.6°, 36.2° and 35.1°, respectively. This compound gave a Hygroscopicity in the data set “Hygroscopicity test” of 0.16%. In addition, the “hygroscopicity (in words)” value in “Hygroscopicity test” was “significantly better than the amorphous form in terms of hygroscopicity”.
For the compound `C=CC(=O)Nc1cc(N2CCN(CC)C3(CC3)C2)ccc1Nc1cc(N(C)C(=O)Nc2c(Cl)c(OC)cc(OC)c2Cl)ncn1` [Crystal form E, N-(2-((6-(3-(2,6-dichloro-3,5-dimethoxyphenyl)-1-methylureido)pyrimidin-4-yl)amino)-5-(4-ethyl-4,7-diazaspiro[2.5]octan-7-yl)phenyl)acrylamide], the purity stood at 99.53 in data set [1] (40° C. for 10 days); 99.52 in data set [1] (60° C. for 10 days); 99.56 in data set [1] (75% RH for 10 days); 99.54 in data set [1] (92.5% RH for 10 days); 99.56 in data set [1] (Day 0); 99.55 in data set [1] (Light for 10 days). The “stability compared with the amorphous form” value in data set [1] was “better stability”. In addition, the D50 in data set [2] is listed as 20.98 μm. In data set [2], this compound gave a D90 of 69.99 μm. Further, the “fluidity / angle of repose (in words)” value in data set [3] is on record as “significantly better than the amorphous form in terms of fluidity”. The values for the angle of repose in data set [3] (measurement 1), in data set [3] (measurement 2) and in data set [3] (measurement 3) were 35.5°, 36.1° and 35.9°, respectively. Moreover, in “Hygroscopicity test”, the Hygroscopicity is listed as 0.20%. In addition, the “hygroscopicity (in words)” value in the data set “Hygroscopicity test” is reported as “significantly better than the amorphous form in terms of hygroscopicity”.
